The source of these data is patent US10266549B2, “ULK1 inhibitors and methods using same” (SALK INSTITUTE FOR BIOLOGICAL STUDIES, priority 2014, dated 2019).

For experiment [1], the system named is PC3 human prostate cells stably expressing GFP-LC3. The experiment can be described thus: GFP-LC3 puncta quantification in PC3 cells. The following applies: PC3 GFP-LC3, control siRNAs, 1 μM mTOR inhibitor for 4 hr. In kind it is cell-based. The method, then:
At 48 hr after RNAi transfection, the cells were treated with 1 μM of the catalytic mTOR inhibitors AZD8055 or INK128 for 4 hr and assessed for the presence of GFP-LC3 puncta. The average number of GFPLC3 puncta and SD for each siRNA and drug treatment are shown. SRC, c-Src; c-Src kinase, CSK.
To test the ability of compound 14 to block autophagy and cell survival, initial studies were performed in A549 lung cancer cells, which are highly sensitive to mTOR inhibition. […] Next, we genetically assessed the requirement for ULK1 versus other kinases inhibited by compound 14 to induce autophagy after pharmacological mTOR inhibition. A robust high-throughput microscopy method for quantifying GFP-LC3 puncta was established using a PC3 prostate-cancer cell line stably expressing a GFP-LC3 construct. Using this assay, we performed a focused RNAi analysis of the top 20 kinases identified in the DiscovRx screen as best binding to compound 14. […] Strikingly, of the 18 kinases tested, only one kinase siRNA, ULK1, nearly fully abolished the LC3 puncta induced by the mTOR inhibitors (FIG. 9D).

The subject of another experiment is A549 lung cancer cells. The experiment can be described thus: AnnexinV apoptosis analysis in A549 cells with mTOR inhibitor. The format is cell-based. Conditions: AZD8055 alone, 1 micromolar. Here is the method:
A549 cells (ATCC #CCL185) and MEFs were seeded at a concentration of 2.5×10^5 cells/mL (i.e., 750,000 cells per 6 cm dish), grown overnight (18 hrs) and treated as indicted in the figure legends. Unless otherwise indicated, “starvation” is EBSS and “control” is DMEM with full serum for indicated timepoints. Samples for western blot were washed once in 1× ice cold PBS and lysed in boiling SDS lysis buffer (10 mM Tris […], 100 mM NaCl, 1% SDS). After trituration, lysates were equilibrated for protein levels using the BCA method (Pierce) and resolved on 8 to 15% SDS-PAGE gels, depending on the size of the protein. PVDF membranes were probed with indicated antibodies overnight according to the manufacturers instructions.
For flow cytometry analysis, cells were collected at the appropriate time point, washed once in PBS, trypsinized and pelleted. For Annexin V staining, cells were washed in 1× Annexin V buffer and treated as described by the Annexin V staining protocol (BD Pharmingen, San Diego, Calif.). Briefly, cells were resuspended in Annexin V buffer to a concentration of one million per mL, 100,000 cells were then stained with 5 μL of phycoerythrin (PE)-conjugated Annexin V antibody (BD Pharmingen, San Diego, Calif.) and 5 μL of 7-amino-actinomycin D (7AAD) and then incubated at room temperature for 15 minutes. 400 μL of Annexin V buffer was then added to each sample with gentle mixing. Stained cells were analyzed using a FACScan flow cytometer (Becton Dickinson, San Jose, Calif.). Flow cytometry data was analyzed using FlowJo 8.6 software (Tree Star Inc., Ashland, Oreg.).
There has been great interest in the role of autophagy in the survival of tumor cells, particular tumor cells faced with metabolic stress from chemotherapies or targeted therapeutics. We next examined whether compound 14 would promote apoptosis in tumor cells similar to the MEFs, selectively under conditions in which autophagy is actively engaged. […] Given that mTOR activity is a dominant regulator of ULK1 activity, and we previously noted that treatment of cells with mTOR catalytic inhibitors was sufficient to induce ULK1 activity, we examined the effect of adding in the ULK1 inhibitor in the context of treatment with mTOR catalytic inhibitors. Using a cell line well-established to be sensitive to mTORC1 inhibition, A549 lung cancer cells, we treated with escalating doses of ULK1 inhibitor while keeping a constant cytostatic growth arrest-inducing 1 micromolar dose of the mTOR catalytic inhibitor AZD8055. We observed that 5 μM compound 14 in combination with AZD8055 triggered apoptosis in 22% of A549 cells compared to 9% of the 5 μM compound 14 alone or 6% of those cells treated with AZD8055 alone. […]

A further experiment has as its target ULK1 (Homo sapiens (Human), UniProt O75385). Briefly: ULK1 inhibition assay (Table 1). The following applies: * = tested as a mixture of regioisomers. In kind it is biochemical.

ULK1, sequence (O75385 whole entry, species assumed): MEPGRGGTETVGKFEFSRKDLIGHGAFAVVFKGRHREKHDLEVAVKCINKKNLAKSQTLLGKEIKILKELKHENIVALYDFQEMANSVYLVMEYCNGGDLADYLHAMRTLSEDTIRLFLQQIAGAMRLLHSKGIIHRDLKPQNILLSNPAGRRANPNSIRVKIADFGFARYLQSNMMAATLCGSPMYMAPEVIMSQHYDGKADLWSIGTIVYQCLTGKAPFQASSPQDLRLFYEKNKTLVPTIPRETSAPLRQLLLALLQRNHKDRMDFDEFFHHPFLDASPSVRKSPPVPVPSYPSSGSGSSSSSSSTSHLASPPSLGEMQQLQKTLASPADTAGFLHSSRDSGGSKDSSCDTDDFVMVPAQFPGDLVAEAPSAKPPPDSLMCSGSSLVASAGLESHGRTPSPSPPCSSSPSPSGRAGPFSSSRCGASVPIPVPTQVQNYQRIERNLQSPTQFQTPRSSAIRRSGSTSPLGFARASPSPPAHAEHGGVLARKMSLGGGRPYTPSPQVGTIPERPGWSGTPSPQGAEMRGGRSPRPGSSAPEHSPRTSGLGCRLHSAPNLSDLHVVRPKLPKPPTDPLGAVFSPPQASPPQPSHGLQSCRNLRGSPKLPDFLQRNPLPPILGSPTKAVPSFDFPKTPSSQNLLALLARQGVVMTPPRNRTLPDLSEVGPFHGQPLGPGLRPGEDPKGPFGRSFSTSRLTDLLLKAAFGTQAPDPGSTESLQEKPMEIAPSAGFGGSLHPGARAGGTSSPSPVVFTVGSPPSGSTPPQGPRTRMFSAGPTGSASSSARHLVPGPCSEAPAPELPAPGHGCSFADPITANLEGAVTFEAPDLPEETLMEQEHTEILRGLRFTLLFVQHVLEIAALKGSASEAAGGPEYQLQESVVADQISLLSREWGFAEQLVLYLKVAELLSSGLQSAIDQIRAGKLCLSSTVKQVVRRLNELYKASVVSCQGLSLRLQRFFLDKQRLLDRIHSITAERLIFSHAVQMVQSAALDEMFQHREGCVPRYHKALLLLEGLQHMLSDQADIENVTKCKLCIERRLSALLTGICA

Turning to `COc1ccc(-c2ccc3c(N4CCOC[C@@H]4C)nc(N4CCOC[C@@H]4C)nc3n2)cc1CO` [AZD8055, (5-(2,4-bis((S)-3-methylmorpholino)pyrido[2,3-d]pyrimidin-7-yl)-2-methoxyphenyl)methanol, reference compound], in experiment [1], the “induction in GFP-LC3 puncta formation” value is on record as 2 fold. Further, in the experiment on A549 lung cancer cells, the “apoptosis, % of A549 cells” value is given as 6%.

In general, IC50 refers to the midpoint of a concentration-inhibition curve. For the compound `COc1cccc(Nc2nc(Nc3ccc4c(c3)OCCO4)ncc2C(F)(F)F)c1` [compound 133, N^2-(2,3-dihydrobenzo[b][1,4]dioxin-6-yl)-N^4-(3-methoxyphenyl)-5-(trifluoromethyl)pyrimidine-2,4-diamine], the IC50 at ULK1 was below 200 nM.

For `N#CCc1cccc(Nc2nc(Nc3ccc4c(c3)CCC(=O)N4)ncc2C(F)(F)F)c1` [compound 61, 2-(3-(2-(2-Oxo-1,2,3,4-tetrahydroquinolin-6-ylamino)-5-(trifluoromethyl)pyrimidin-4-ylamino)phenyl)acetonitrile], the concentration for half-maximal inhibition (IC50) on ULK1 was below 200 nM.

For the compound `COc1ccc(Nc2nc(Nc3cc(OC)c(OC)c(OC)c3)ncc2Cl)cn1` [compound 24, 5-Chloro-N^4-(6-methoxypyridin-3-yl)-N^2-(3,4,5-trimethoxyphenyl)pyrimidine-2,4-diamine], on ULK1, the IC50 was below 200 nM.

On to “N2-(2-methoxy-5-methylphenyl)-N4-(3-(methylsulfonyl) benzyl)-5-(trifluoromethyl)pyrimidine-2,4-diamine [compound 50]”, for which the IC50 at ULK1 was above 2000 nM.

Turning to `CNC(=O)c1ccccc1Nc1ccnc(Nc2cc(OC)c(OC)c(OC)c2)n1` [compound 60, N-Methyl-2-(2-(3,4,5-trimethoxyphenylamino)pyrimidin-4-ylamino)benzamide], the IC50 at ULK1 was below 200 nM.

For the compound `CNC(=O)c1ccccc1Nc1nc(Nc2ccc(N3CCOCC3)cc2OC)ncc1C(F)(F)F` [compound 39, 2-(2-(2-Methoxy-4-morpholinophenylamino)-5-(trifluoromethyl)pyrimidin-4-ylamino)-N-methylbenzamide], the concentration for half-maximal inhibition (IC50) at ULK1 was below 200 nM.

With `CNC(=O)c1ccccc1Oc1nc(Nc2cc(OC)ccc2C)ncc1C(F)(F)F` [compound 101, 2-((2-((5-methoxy-2-methylphenyl)amino)-5-(trifluoromethyl)pyrimidin-4-yl)oxy)-N-methylbenzamide], the IC50 at ULK1 is above 2000 nM.

In the case of `CNC(=O)c1ccccc1Oc1nc(Nc2cc(OC)ccc2C)ncc1Br` [compound 170, 2-((5-bromo-2-((5-methoxy-2-methylphenyl)amino)pyrimidin-4-yl)oxy)-N-methylbenzamide], the IC50 at ULK1 was above 2000 nM.

`CNC(=O)c1ccccc1Nc1nc(Nc2ccc(N3CCOCC3)cc2OC)ncc1Br` [compound 13, 2-(5-Bromo-2-(2-methoxy-4-morpholinophenylamino)pyrimidin-4-ylamino)-N-methylbenzamide]: at ULK1, the IC50 was 200 to 2000 nM.

In the case of `CNC(=O)c1ccccc1Nc1nc(Nc2ccc3c(c2)OCCO3)ncc1Cl` [compound 51, 2-(5-Chloro-2-(2,3-dihydrobenzo[b][1,4]dioxin-6-ylamino)pyrimidin-4-ylamino)-N-methylbenzamide], at ULK1, the concentration for half-maximal inhibition (IC50) was below 200 nM.

For `O=C1CCc2cc(Nc3ncc(C(F)(F)F)c(NC4Cc5ccccc5C4)n3)ccc2N1` [130a, 6-((4-((2,3-dihydro-1H-inden-2-yl)amino)-5-(trifluoromethyl)pyrimidin-2-yl)amino)-3,4-dihydroquinolin-2(1H)-one], the IC50 on ULK1 is below 200 nM.

As for `FC(F)(F)c1cnc(Nc2ccc3c(c2)OCO3)nc1NC1Cc2ccccc2C1` [163b, N^2-(benzo [d] [1,3]dioxol-5-yl)-N^4-(2,3-dihydro-1H-inden-2-yl)-5-(trifluoromethyl)pyrimidine-2,4-diamine], on ULK1, the 50% inhibitory concentration (IC50) is above 2000 nM.

For `Nc1nc(Nc2ccc3c(c2)OCO3)ncc1C(F)(F)F` [165b, N^2-(benzo[d][1,3]dioxol-5-yl)-5-(trifluoromethyl)pyrimidine-2,4-diamine], the concentration for half-maximal inhibition (IC50) at ULK1 lay in the range of 200 to 2000 nM.

Consider `FC(F)(F)c1cnc(Nc2ccc3c(c2)OCO3)nc1NCC1CC1` [167b, N^2-(benzo[d][1,3]dioxol-5-yl)-N^4-(cyclopropylmethyl)-5-(trifluoromethyl)pyrimidine-2,4-diamine], for which the IC50 on ULK1 was below 200 nM.

On to `O=C1CCc2cc(Nc3nc(Nc4ccc5c(c4)OC(F)(F)O5)ncc3C(F)(F)F)ccc2N1` [178b, 6-((2-((2,2-difluorobenzo[d][1,3]dioxol-5-yl)amino)-5-(trifluoromethyl)pyrimidin-4-yl)amino)-3,4-dihydroquinolin-2(1H)-one], for which the half-inhibitory concentration (IC50) at ULK1 was below 200 nM.

In the case of `CNC(=O)c1ccccc1Oc1nc(Nc2ccccc2)ncc1Br` [compound 111, 2-((5-bromo-2-(phenylamino)pyrimidin-4-yl)oxy)-N-methyl benzamide], at ULK1, the IC50 was above 2000 nM.

For `CNC(=O)c1ccccc1Oc1nc(Nc2ccc(C)c(C)c2)ncc1C(F)(F)F` [compound 106, 2-((2-((3,4-dimethylphenyl)amino)-5-(trifluoromethyl)pyrimidin-4-yl)oxy)-N-methylbenzamide], the half-maximal inhibitory concentration (IC50) at ULK1 fell in the range of 200 to 2000 nM.

On to `CNC(=O)c1ccccc1Nc1nc(Nc2ccc3c(c2)OCO3)ncc1Cl` [compound 49, 2-(2-(Benzo[d][1,3]dioxol-5-ylamino)-5-chloropyrimidin-4-ylamino)-N-methylbenzamide], for which the half-inhibitory concentration (IC50) on ULK1 is below 200 nM.

`CNC(=O)c1ccccc1Oc1nc(Nc2cc(OC)c(OC)c(OC)c2)ncc1C(F)(F)F` [compound 92, N-Methyl-2-(5-(trifluoromethyl)-2-(3,4,5-trimethoxyphenylamino)pyrimidin-4-yloxy)benzamide]: the half-maximal inhibitory concentration (IC50) on ULK1 was below 200 nM.

For `O=C1CCc2cc(Nc3ncc(C(F)(F)F)c(Nc4nccs4)n3)ccc2N1` [compound 58, 6-(4-(Thiazol-2-ylamino)-5-(trifluoromethyl)pyrimidin-2-ylamino)-3,4-dihydroquinolin-2(1H)-one], on ULK1, the IC50 is above 2000 nM.

With `O=C1CCc2cc(Nc3ncc(Br)c(Nc4ccccn4)n3)ccc2N1` [compound 155, 6-((5-bromo-4-(pyridin-2-ylamino)pyrimidin-2-yl)amino)-3,4-dihydroquinolin-2(1H)-one], the IC50 at ULK1 was below 200 nM.

With `CC(C)n1nc(-c2ccc3oc(N)nc3c2)c2c(N)ncnc21` [INK128, 3-(2-amino-5-benzoxazolyl)-1-(1-methylethyl)-1H-pyrazolo[3,4-d]pyrimidin-4-amine], the “induction in GFP-LC3 puncta formation” value in experiment [1] worked out at 2 fold.

On to `COCCNc1nc(Nc2ccc3c(c2)CCC(=O)N3)ncc1C(F)(F)F` [151a, 6-((4-((2-methoxyethyl)amino)-5-(trifluoromethyl)pyrimidin-2-yl)amino)-3,4-dihydroquinolin-2(1H)-one], for which the IC50 on ULK1 is below 200 nM.
